Earlier results in patent publication US11931369B1, “Compositions and methods for treating epilepsy” (POVIVA CORP, priority 2023, dated 2024).
Where two headings read alike, the source gives them in different places.

Q: With `C=C(C)[C@@H]1CCC(C)=C[C@H]1c1c(O)cc(CCCCC)cc1O` [Cannabidiol, 2-[(1R,6R)-6-Isopropenyl-3-methylcyclohex-2-en-1-yl]-5-pentylbenzene-1,3-diol] as the compound, how does the “Plasma concentration on Day 22 at target CBD dose, 5 hours, Mean” value (5 mg/kg/day (N = 10)) read?
A: 72.1 ng/mL

Q: And the “Plasma concentration on Day 22 at target CBD dose, Pre-dose, Mean” value (5 mg/kg/day (N = 10))?
A: 23.0 ng/mL

Q: And the “Plasma concentration on Day 22 at target CBD dose, […], Mean” value (5 mg/kg/day (N = 10))?
A: 130 ng/mL

Q: And the “Plasma concentration on Day 1 at starting CBD dose, 5 hours, Mean” value (5 mg/kg/day group (N = 10))?
A: 10.0 ng/mL

Q: And the “Plasma concentration on Day 1 at starting CBD dose, Pre-dose, Mean” value (5 mg/kg/day group (N = 10))?
A: 0 ng/mL

Q: What about the “Plasma concentration on Day 1 at starting CBD dose, […], Mean” value (5 mg/kg/day group (N = 10)) of the same compound?
A: 37.6 ng/mL

Q: What about the “Plasma concentration on Day 22 at target CBD dose, 5 hours, Mean” value (10 mg/kg/day (N = 8)) of the same compound?
A: 288 ng/mL

Q: What about the “Plasma concentration on Day 22 at target CBD dose, Pre-dose, Mean” value (10 mg/kg/day (N = 8)) of the same compound?
A: 62.1 ng/mL

Q: And the “Plasma concentration on Day 22 at target CBD dose, […], Mean” value (10 mg/kg/day (N = 8))?
A: 242 ng/mL

Q: And the “Plasma concentration on Day 1 at starting CBD dose, 5 hours, Mean” value (10 mg/kg/day group (N = 8))?
A: 11.3 ng/mL

Q: What about the “Plasma concentration on Day 1 at starting CBD dose, Pre-dose, Mean” value (10 mg/kg/day group (N = 8)) of the same compound?
A: 0 ng/mL

Q: And the “Plasma concentration on Day 1 at starting CBD dose, […], Mean” value (10 mg/kg/day group (N = 8))?
A: 34.4 ng/mL

Q: And the “Plasma concentration on Day 22 at target CBD dose, 5 hours, Mean” value (20 mg/kg/day (N = 9))?
A: 308 ng/mL

Q: And the “Plasma concentration on Day 22 at target CBD dose, Pre-dose, Mean” value (20 mg/kg/day (N = 9))?
A: 121 ng/mL

Q: And the “Plasma concentration on Day 22 at target CBD dose, […], Mean” value (20 mg/kg/day (N = 9))?
A: 380 ng/mL

Q: What about the “Plasma concentration on Day 1 at starting CBD dose, 5 hours, Mean” value (20 mg/kg/day group (N = 9)) of the same compound?
A: 25.3 ng/mL

Q: What about the “Plasma concentration on Day 1 at starting CBD dose, Pre-dose, Mean” value (20 mg/kg/day group (N = 9)) of the same compound?
A: 0 ng/mL

Q: What about the “Plasma concentration on Day 1 at starting CBD dose, […], Mean” value (20 mg/kg/day group (N = 9)) of the same compound?
A: 29.3 ng/mL
